These results are taken from patent publication US20050282743A1, “Molecular interactions in cells” (Arbor Vita Corporation, priority 2001, published 2005).

Common to all, as to assay: G' assay, TABLE 12
Common to all, as to format: binding
Common to all, as to conditions: A450 nm class of biotinylated PL peptide bound; 0 in conc columns = peptide 10 uM, protein 5 ug/ml

In assay [1] the target is T1, KIAA807 (Homo sapiens, UniProt Q6P0Q8).
T1 construct: made in house; host or cells: E. coli (DH5alpha, BL21 or JM109)
T1 sequence (Q6P0Q8 1104-1192 limits assumed): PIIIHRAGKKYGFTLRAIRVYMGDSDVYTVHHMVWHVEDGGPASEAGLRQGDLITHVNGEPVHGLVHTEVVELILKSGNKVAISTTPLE
The method, boiled down: (§1)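 PL peptide binding to PDZ domain protein, peptide at 10 uM; protein at 5 ug/ml unless another concentration is listed for Kd determination. Bound peptide read at A450 nm and binned into classes 0–5.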

The target in assay [2] is T2, DLG1 (PDZ Domain 1, 2) (Homo sapiens, UniProt Q12959).
T2 construct: made in house; host or cells: E. coli (DH5alpha, BL21 or JM109)
The method, boiled down:
as §1

Assay [3] deals with T3, NeDLG (PDZ Domain 1, 2) (Homo sapiens, UniProt Q92796).
T3 construct: When more than one PDZ domain was cloned, the DNA portion cloned represents the PDZ domains and the cDNA portion located between individual domains; made in house; host or cells: E. coli (DH5alpha, BL21 or JM109)
T3 sequence (Q92796 129-315 limits assumed): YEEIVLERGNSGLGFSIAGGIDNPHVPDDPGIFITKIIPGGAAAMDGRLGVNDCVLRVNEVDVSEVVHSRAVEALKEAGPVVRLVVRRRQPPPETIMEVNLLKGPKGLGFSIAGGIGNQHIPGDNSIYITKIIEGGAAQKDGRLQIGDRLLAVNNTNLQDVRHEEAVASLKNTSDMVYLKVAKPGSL
Summed up: as §1

Peptide text beside a SMILES is read from it. * marks the point of attachment. Biotin = O=C1N[C@H]2[C@H](CS[C@H]2CCCCC(=O)*)N1

T2 sequence (Q12959 213-413 limits assumed): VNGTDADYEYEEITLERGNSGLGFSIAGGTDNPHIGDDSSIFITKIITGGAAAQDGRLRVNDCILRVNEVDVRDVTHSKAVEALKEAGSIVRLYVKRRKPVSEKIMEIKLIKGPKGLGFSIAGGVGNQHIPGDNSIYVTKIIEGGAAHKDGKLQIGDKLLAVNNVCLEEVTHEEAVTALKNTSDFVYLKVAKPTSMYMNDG

`CC[C@H](C)[C@H](NC(=O)[C@H](CCC(N)=O)NC(=O)CCCC[C@@H]1SC[C@@H]2NC(=O)N[C@@H]21)C(=O)N[C@@H](CO)C(=O)N1CCC[C@H]1C(=O)NCC(=O)NCC(=O)N[C@@H](CC(C)C)C(=O)N[C@@H](CCC(=O)O)C(=O)N1CCC[C@H]1C(=O)N1CCC[C@H]1C(=O)N[C@@H](CO)C(=O)N[C@@H](CCC(=O)O)C(=O)N[C@@H](CCCCN)C(=O)N[C@@H](Cc1c[nH]cn1)C(=O)N[C@@H](Cc1ccccc1)C(=O)N[C@@H](CCCNC(=N)N)C(=O)N[C@@H](CCC(=O)O)C(=O)N[C@H](C(=O)N[C@@H](CCC(=O)O)C(=O)N[C@H](C(=O)O)C(C)C)[C@@H](C)O` [Tax]: the Classification in assay [1], in assay [2] and in assay [3] was 5 (A450 nm of 4 more than 2× repeated) in each case.

`CC[C@H](C)[C@H](NC(=O)[C@H](CCC(=O)O)NC(=O)[C@H](CC(N)=O)NC(=O)[C@H](CCCNC(=N)N)NC(=O)[C@H](Cc1ccccc1)NC(=O)[C@H](CC(N)=O)NC(=O)[C@H](CO)NC(=O)[C@H](CC(N)=O)NC(=O)[C@H](CCC(=O)O)NC(=O)[C@H](CO)NC(=O)[C@H](CC(=O)O)NC(=O)[C@H](CO)NC(=O)[C@@H](NC(=O)[C@@H](NC(=O)[C@H](CC(=O)O)NC(=O)[C@H](CCCCN)NC(=O)CCCC[C@@H]1SC[C@@H]2NC(=O)N[C@@H]21)[C@@H](C)CC)[C@@H](C)O)C(=O)N[C@@H](CCC(N)=O)C(=O)N[C@@H](CO)C(=O)N[C@@H](CC(C)C)C(=O)N[C@H](C(=O)O)C(C)C` [CD95] (Biotin-KDITSDSENSNFRNEIQSLV-OH; C-terminus assumed): the Classification in assay [2] is listed as 2 (A450 nm 1-2); in assay [3] it was 1 (A450 nm 0-1).
